Patent US10064843B2, “Bis-amide derivative and use thereof” (University-Industry Cooperation Group of Kyung Hee …, priority 2013, dated 2018)
Read-outs that look alike come from different tables or passages of the source.

Tests used:
[1] = system: IL-8; experiment: IL-8 mRNA and IL-8 ELISA in HCV replicon cell; type: cell-based, human; conditions: 2 μM
Procedure: Example 11: Determination of IL-8 and INF-α Concentrations in Cell Culture Media by ELISA
Upon incubation, the cell culture media were collected and the IL-8 and IFN-α concentrations were analyzed according to the protocol of eBioscience (San Diego, Calif., USA) by ELISA.
(§1) Example 19: Real-Time Quantitative Reverse Transcriptase PCR Analysis
(§2) Real-time quantitative reverse transcriptase PCR (qRT-PCR) was performed using SYBR Green PCR Master Mix (Invitrogen/Applied Biosystem, Carlsbad, Calif., USA) and ABI Prism 7300 Real-time PCR System (Applied Biosystems, Carlsbad, Calif., USA) according to the manufacturer's instructions. Calculations were performed based on […] method using the following equation: R (ratio)=2-[ΔCT (sample)-ΔCT (control group)]. The data were expressed as fold change of the treated group relative to the control group and standardized relative to the glyceraldehyde 3-phosphate dehydrogenase (GAPDH) level.

[2] = system: STAT1, STAT2, IRF9, OAS1, and ISG15; experiment: Real-time qRT-PCR of interferon-stimulated genes in HCV replicon cell; type: cell-based, human; conditions: 2 μM; FIG. 14
Procedure: as §1, §2

[3] = target: T1, CypA and NS5A or NS5B (Homo sapiens, UniProt P62937); experiment: Co-immunoprecipitation and mammalian two-hybrid analysis of CypA with NS5A or NS5B; type: cell-based; conditions: FIG. 13a, 13b
T1 construct: 1 mg/mL of HCV Con1b replicon protein lysate; endogenous in cells; host or cells: Huh7 cells carrying the HCV Con1b subgenomic replicon
T1 sequence (P62937 whole entry): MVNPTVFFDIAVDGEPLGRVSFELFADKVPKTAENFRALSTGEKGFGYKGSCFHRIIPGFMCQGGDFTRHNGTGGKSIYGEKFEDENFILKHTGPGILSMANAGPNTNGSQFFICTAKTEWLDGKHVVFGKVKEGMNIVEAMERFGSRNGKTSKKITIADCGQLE
Procedure: Example 17: Co-Immunoprecipitation Assay
For co-immunoprecipitation, 4 μg of specific antibody and 1 mg/mL of HCV Con1b replicon protein lysate to a final volume of 500 μL were rotated at 4° C. for 4 hours. Then, 20 μL of the washed protein A/G PLUS agarose (Santa Cruz, Calif., USA) was added thereto and incubated at 4° C. overnight. Subsequently, the sample was washed 3 times with Triton-wash-buffer, resuspended, and denatured in 5×SDS-PAGE buffer at 95° C. for 5 minutes. The resultant was centrifuges at 19,000 g for 1 minute at 4° C. and subjected to western blot analysis.
Example 18: Mammalian Two-Hybrid System
The interaction between intracellular CypA-NS5A and CypA-NS5B was confirmed by the two-hybrid screening technology using CheckMate™ mammalian two-hybrid system (Promega, Madison, Wis., USA) according to the manufacturer's instructions. In brief, pACT- and pBIND-based plasmids were co-transfected (TurboFect, FermentasC) to Huh7 cells along with a pG5luc reporter construct, and incubated at 37° C. After 72 hours, the cell lysate was analyzed regarding the luciferase activity.

[4] = target: T2, CypA (Homo sapiens, UniProt P62937); experiment: 2D 1H TOCSY NMR of the WJCPA-126 and CypA complex; type: binding; conditions: FIG. 4
T2 construct: GST (N, cleaved yes); made in house; host or cells: E. coli (pGEX-KG)
T2 sequence (P62937 whole entry): as above
Description: In the spin system of […],[…], and […] of CypA, the connectivity was shown in yellow-, green-, and red solid lines. […] From the above result, it was confirmed that the bis-amide compounds of the present invention can specifically bind to […],[…], and […] residues of CypA thereby inhibiting the PPIase activity of CypA.

[5] = target: T2, CypA; experiment: PPIase activity of CypA, coupled chymotrypsin analysis; type: biochemical
Procedure: Example 5: Analysis of Peptidyl-Prolyl Cis-Trans Isomerase Activity
The PPIase activity of CypA was determined according to a known method using the coupled chymotrypsin analysis.
The cis-trans isomerization was measured by absorbance at 390 nm in a spectrophotometer. Additionally, the remaining percentage of enzyme activity was measured at different concentrations of the inhibitor to calculate the 50% inhibition concentration (IC50) to the PPIase activity. Data was optimized via graphs by exporting using Graph Pad Prism 5.

[6] = target: T2, CypA; experiment: SPR binding of WJCPA-126 or CsA to CypA
Procedure: Example 4: Molecular Docking Analysis by Surface Plasmon Resonance (SPR)
CypA protein was fixed on the sensor chip surface via free amine coupling by injecting a mixture of 0.1 M 1-ethyl-3-(3-dimethylaminopropyl) carboimidehydrochloride and 0.05 M N-hydroxysuccinimide thereon, and the extra activated carboxylic acid was inhibited using 1M ethanolamine (pH 8.5). The second reference cell was treated similarly while excluding the target protein. All working peptide dilutions were prepared in running buffer (PBS containing 0.2% DMSO) and injected at a rate of 30 μL/min for 3 minutes (association time) and dissociation phase was performed for 3 minutes. Nonspecific background was substracted from each sensogram using SPR_V4017 data collection and alignment program (Reichert, Depew, N.Y.). […] Optimum kinetic parameters were obtained by global fitting analysis using Scrubber2 (Biologic Software, Australia).

[7] = system: HCV-Con1b replicon; experiment: HCV mouse model (NOD/SCID mice transplanted with Huh7 HCV-Con1b replicon cells); conditions: 50 mg/kg intraperitoneally daily, two weeks
Procedure: Five to six-week old immunodeficient NOD/SCID mice (Charles River Laboratories, USA) were used. The use of experimental animals and experimental protocol (KHUASP (SE)-11-045) was approved by the Institutional Animal Care and Use Committee of Kyung Hee University (Seoul, Korea). The control Huh7 cells or the Huh7 cells including the HCV-Con1b replicon were injected into mice intrasplenically (1×10^6 cells/200 μL of PBS). Cell transplantation and surgical procedures were performed under anesthesia along with a prophylactic antibiotic. […] Each treatment group consisted of 5 mice. Upon completion of the treatment, the mice were sacrificed and liver tissues were collected from them for analysis.
Murine liver tissues were dissected and then cryoprotected in 30% sucrose for the preparation of paraffin-embedded samples. Paraffin samples for Hematoxylin and Eosin (H&E) staining were prepared. After removing paraffin, rehydrated samples were incubated with monoclonal antibodies to human hepatocytes (Hep par 1) and HCV NS5A (Santa Cruz, Calif., USA), which were diluted at a ratio of 1:50, at 4° C. overnight. […] The nuclei were stained with DAPI for 5 minutes and analyzed using a confocal microscope.
HCV RNA was extracted from liver tissue by Trizol method. Mouse liver tissues were mechanically destroyed and lysed in Trizol (Invitrogen, Carlsbad, Calif., USA). The quantitative analysis of HCV RNA was performed using real-time transcription PCR.

COc1cc(C(C(=O)NC2CCCCC2)N(C(=O)Cc2c[nH]c3ccccc23)c2ccc(C(C)C)cc2)cc(OC)c1OC (centres unmarked) [WJCPA-126, N-cyclohexyl-2-[(2-1H-indol-3-yl-acetyl)-(4-isopropyl-phenyl)-amino]-2-(3,4,5-trimethoxy-phenyl)-acetamide]
mRNA level of IL-8 ([1]; FIG. 15b): significant reduction of mRNA level of IL-8 in a time-dependent manner
IL-8 production (ELISA) ([1]; FIG. 15c): significantly reduces the expression of IL-8 production
mRNA expression levels of STAT1, STAT2, IRF9, OAS1, and ISG15 [2]: increase the mRNA expression levels of STAT1, STAT2, IRF9, OAS1, and ISG15 in a time-dependent manner
interactions between CypA and NS5A or NS5B [3]: destroys the interactions between CypA and NS5A or NS5B
binding residues of CypA by NMR [4]: binds to Arg 55, Trp 121, and Phe 113 residues of CypA
inhibitory effect against the PPIase activity of CypA ([5]; 1 μM, 20 nM CypA, FIG. 3a): strong inhibitory effect
IC50 ([5]; FIG. 3b, read-out: IC50 PPIase activity): 3.5 nM
IC50 ([5]; FIG. 7a, read-out: IC50 PPIase activity of CypA): 3.6 nM
Koff (dissociation rate) ([6]; SPR): 6.0×10^−4 S^−1
Kon ([6]; SPR): 8.2×10^3 M^−1 S^−1
Kd ([6]; SPR-based kinetic analysis, CypA): 520 nM
body weight ([7]; FIG. 19a): did not show any noticeable change in body weight
HCV RNA level in liver ([7]; FIG. 19b): relatively higher level of inhibition on the HCV RNA level than the CsA treatment
HCV NS5A in transplanted mouse liver tissue (immunofluorescence) ([7]; FIG. 20): only faintly detected
